Test system: HIV-1LAI
Test: Antiviral MTT assay in MT-2 cells exposed to HIV-1LAI
Type: cell-based

In the case of `CC(C)CN(C[C@@H](O)[C@H](Cc1ccccc1)NC(=O)O[C@@H]1C[C@@H]2[C@H](O)CO[C@@H]2C1)S(=O)(=O)c1ccc(N)cc1` [Inhibitor 23, (3S,3aR,5R,6aR)-3-Hydroxyhexahydro-2H-cyclopenta[b]furan-5-yl [(2S,3R)-4-(4-Amino-N-isobutylphenylsulfonamido)-3-hydroxy-1-phenylbutan-2-yl]carbamate], the “fold loss of antiviral activity compared to 22” value is reported as 3 fold.
`COc1ccc(S(=O)(=O)N(CC(C)C)C[C@@H](O)[C@H](Cc2ccccc2)NC(=O)O[C@@H]2C[C@@H]3[C@H](OC)CO[C@@H]3C2)cc1` [Inhibitor 25, (3S,3aS,5R,6aR)-3-Methoxyhexahydro-2H-cyclopenta[b]furan-5-yl [(2S,3R)-3-Hydroxy-4-(N-iso-butyl-4-methoxyphenylsulfonamido)-1-phenylbutan-2-yl]carbamate] was tested, and the “fold loss of antiviral activity compared to 22” value was ~5 fold.

Reference: PMC3164320 (Journal of medicinal chemistry, 2011)
